The subject of test [1] is pome fruit, specifically apples and pears. Put plainly: Applicant's experiments on floral development in the year after treatment with acylcyclohexanedione growth regulators. The test is classed as in vivo. The source says:
Thus, D. Sugar, D. C. Elfving and E. A. Mielke report in Acta Hort. […] In the most extreme case, no floral development at all takes place in the year after the treatment.

For test [2], the system named is 12-year-old pear trees cv. "Conference" on BA rootstock. Put plainly: Flowering behavior in pears after treatment with prohexadione-calcium and ethephon (inflorescence count about one year after first application). The class given is in vivo. On the procedure:
1. Flowering Behavior in Pears after Treatment with Prohexadione-calcium and Ethephon
12-year-old pear trees cv. “Conference” on BA rootstock at two different locations were treated first with prohexadione-calcium alone and secondly with a combination of prohexadione-calcium and ethephon. To this end, 4 groups of 5 trees each, which were uniformly distributed in an orchard, were sprayed with an active-ingredient-comprising spray mixture to run-off point (approx. 1000 l/ha). Three applications at intervals of approximately one month were carried out at the first location. At the second location, prohexadione-calcium was applied four times to a part of the groups of trees and three times to another part, the application interval being in each case approximately two weeks. The combination of prohexadione-calcium and ethephon was applied twice, with in each case one application with prohexadione-calcium alone being carried out before and after the combined application. Approximately one year after the first application, the number of inflorescences of untreated trees, of those which have been treated exclusively with prohexadione-calcium and of trees which had been treated with a combination of prohexadione-calcium and ethephon were counted and compared with each other.

The subject of the next test is pear trees. The note with it: cited from earlier work.

For the compound `CCOC(=O)C1CC(=O)C(=C(O)C2CC2)C(=O)C1` (centres unmarked) [trinexapac-ethyl], the “Floral development in the year after the treatment” value in test [1] is “markedly reduced floral development”.
On the same count and under the same terms, under `O=C1CC(C(=O)O)CC(=O)C1=C(O)C1CC1` (centres unmarked) [trinexapac] stands “markedly reduced floral development”.
Consider prohexadione-calcium [ProCa], for which the “Flowering in the subsequent year, April 2003” value in test [2] (Location 1, ProCa alone 150 g/ha on 15th April, 14th May, 16th June 2002, total 450 g/ha, untreated 183) is given as 137 number of inflorescences/tree; in test [2] (Location 2, ProCa alone four applications 120/87/87/95 g/ha (12th April, 3rd, 15th, 30th May 2002), total 389 g/ha, untreated 250), 157 number of inflorescences/tree; in test [2] (Location 2, ProCa alone three applications 120/87/87 g/ha (12th April, 3rd, 15th May 2002), total 294 g/ha, untreated 250) it was 152 number of inflorescences/tree. Besides, in test [2] (pear trees, Tables 1 and 2), the “Floral development in the year following the treatment (summary in words)” value was “reduced floral development”. In test [1], the “Floral development in the year after the treatment” value was “markedly reduced floral development”. Besides, in the test on pear trees, the Subsequent flowering entry is reported as “reduced subsequent flowering”.

The record behind these values is US20060229208A1, “Use of acyl cyclohexandione derivatives in conjunction with ethephon for treating pomaceous fruit” (BASF AKTIENGESELLSCHAFT, priority 2003, published 2006).
